According to US20150105252A1, “SUBSTITUTED PYRAZOLES AS HERBICIDES” (E I DU PONT DE NEMOURS AND COMPANY, priority 2013, published 2015):

What was measured:
Russian thistle = experiment: Test D postemergence; assay type: in vivo, Salsola kali; conditions: scale 0 to 100; for Plant response rating, Russian Thistle: 16 g ai/ha
From the text: Seeds of plant species selected from bluegrass (annual bluegrass, Poa annua), blackgrass (Alopecurus myosuroides), canarygrass (littleseed canarygrass, Phalaris minor), chickweed (common chickweed, Stellaria media), galium (catchweed bedstraw, Galium aparine), bromegrass, downy (downy bromegrass, Bromus tectorum), field poppy (Papaver rhoeas), field violet (Viola arvensis), foxtail, green (green foxtail, Setaria viridis), deadnettle (henbit deadnettle, Lamium amplexicaule), ryegrass, Italian (Italian ryegrass, Lolium multiflorum), kochia (Kochia scoparia), lambsquarters (Chenopodium album), oilseed rape (Brassica napus), pigweed (redroot pigweed, Amaranthus retroflexus), chamomile (scentless chamomile, Matricaria inodora), speedwell (bird's-eye speedwell, Veronica persica), barley, spring (spring barley, Hordeum vulgare), wheat, spring (spring wheat, Triticum aestivum), buckwheat, wild (wild buckwheat, Polygonum convolvulus), mustard, wild (wild mustard, Sinapis arvensis), oat, wild (wild oat, Avena fatua), radish, wild (wild radish, Raphanus raphanistrum), windgrass (Apera spica-venti), Russian thistle (Salsola kali), barley, winter (winter barley, Hordeum vulgare), and wheat, winter (winter wheat, Triticum aestivum) were planted into a silt loam soil and treated preemergence with test chemicals formulated in a non-phytotoxic solvent mixture which included a surfactant.
At the same time, these species were planted in pots containing Redi-Earth® planting medium (Scotts Company, 14111 Scottslawn Road, Marysville, Ohio 43041) comprising spaghnum peat moss, vermiculite, wetting agent and starter nutrients and treated with postemergence applications of the test chemicals formulated in the same manner. Plants ranged in height from 2 to 18 cm (1- to 4-leaf stage). Treated plants and controls were maintained in a controlled growth environment for 14 to 21 days after which time all species were compared to controls and visually evaluated. Plant response ratings, summarized in Table D, are based on a scale of 0 to 100 where 0 is no effect and 100 is complete control. A dash (-) response means no test result.

kochia = experiment: Test C preemergence; assay type: in vivo, Kochia scoparia; conditions: for Plant response rating (scale of 0 to 100), Kochia: Preemergence, 250 g ai/ha; for Kochia plant response rating / Plant response rating, Kochia: preemergence; for Plant response rating, Kochia: 62 g ai/ha, scale 0 to 100, 0 = no effect, 100 = complete control
From the text: Seeds of plant species selected from blackgrass (Alopecurus myosuroides), ryegrass, Italian (Italian ryegrass, Lolium multiflorum), wheat (winter wheat, Triticum aestivum), galium (catchweed bedstraw, Galium aparine), corn (Zea mays), crabgrass, large (large crabgrass, Digitaria sanguinalis), foxtail, giant (giant foxtail, Setaria faberii), johnsongrass (Sorghum halepense), lambsquarters (Chenopodium album), morningglory (Ipomoea coccinea), nutsedge, yellow (yellow nutsedge, Cyperus esculentus), pigweed (redroot pigweed, Amaranthus retroflexus), ragweed (common ragweed, Ambrosia elation), soybean (Glycine max), barnyardgrass (Echinochloa crus-galli), oilseed rape (Brassica napus), waterhemp (common waterhemp, Amaranthus rudis), oat, wild (wild oat, Avena fatua), kochia (Kochia scoparia), Surinam grass (Brachiaria decumbens), foxtail, green (green foxtail, Setaria viridis), goosegrass (Eleusine indica), bromegrass, downy (downy bromegrass, Bromus tectorum), nightshade (eastern black nightshade, Solanum ptycanthum), cocklebur (common cocklebur, Xanthium strumarium), cupgrass, woolly (woolly cupgrass, Eriochloa villosa), bermudagrass (Cynodon dactylon), sunflower, (common oilseed sunflower, Helianthus annuus), Russian thistle (Salsola kali), and velvetleaf (Abutilon theophrasti) were planted into a blend of loam soil and sand and treated preemergence with test chemicals formulated in a non-phytotoxic solvent mixture which included a surfactant.
At the same time, plants selected from these crop and weed species and also chickweed (common chickweed, Stellaria media), canarygrass (littleseed canarygrass, Phalaris minor), and deadnettle (henbit deadnettle, Lamium amplexicaule), were planted in pots containing Redi-Earth® planting medium (Scotts Company, 14111 Scottslawn Road, Marysville, Ohio 43041) comprising spaghnum peat moss, vermiculite, wetting agent and starter nutrients and treated with postemergence applications of test chemicals formulated in the same manner. Plants ranged in height from 2 to 18 cm (1- to 4-leaf stage) for postemergence treatments. Treated plants and controls were maintained in a greenhouse for 13 to 15 days, after which time all species were compared to controls and visually evaluated. Plant response ratings, summarized in Table C, are based on a scale of 0 to 100 where 0 is no effect and 100 is complete control. A dash (-) response means no test result.

blackgrass = experiment: Test A postemergence; assay type: in vivo, Alopecurus myosuroides
How it was run: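 Pre- and postemergence greenhouse test; loam+sand; cpd in non-phytotox. solvent/surfactant; post at 1–2 leaf, 2–10 cm; visual score ~10 d, 0 = none, 100 = complete control.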

[1] = 31 g ai/ha, scale 0 to 100 (0 no effect, 100 complete control), 13 to 15 days
[2] = 125 g ai/ha, scale 0 to 100, 0 is no effect, 100 is complete control
[3] = Postemergence, 500 g ai/ha, 0 to 100 scale (0 no effect, 100 complete control)
[4] = postemergence, 125 g ai/ha, about 10 days, visual rating on 0 to 100 scale (0 no effect, 100 complete control)

Structure (SMILES) | Plant response rating, Russian Thistle (Russian thistle; Postemergence) | Russian Thistle plant response rating (Russian thistle; Postemergence, 31 g ai/ha) | Russian Thistle plant response rating (Russian thistle; Postemergence, 125 g ai/ha) | Russian Thistle plant response rating (Russian thistle; Postemergence, 250 g ai/ha) | Russian Thistle plant response rating (Russian thistle; postemergence, 62 g ai/ha) | Plant response rating (scale of 0 to 100), Kochia (kochia) | Kochia plant response rating (kochia; [1]) | Plant response rating, Kochia (kochia; 13 to 15 days) | Kochia plant response rating (kochia; [2]) | Blackgrass plant response rating (blackgrass; [3]) | Blackgrass plant response rating (blackgrass; [4])
CCc1cc(C(=O)NOC(C)C)nn1Cc1cccc(OC(F)(F)F)c1 [Compound 70] | 0 | 80 | 85 | 90 | 80 | 98 | 40 | 65 | 98 |  | 
Cc1cc(C(=O)NCC(F)(F)F)nn1Cc1ccnc(C(F)(F)F)c1 [Compound 74] | 0 | 0 | 60 |  | 0 | 98 | 98 | 98 | 98 |  | 
CCc1cc(C(=O)NC2CC2)nn1Cc1ccnc(C(F)(F)F)c1 [Compound 76] | 5 | 5 | 10 | 40 | 5 |  |  |  |  |  | 
CCCNC(=O)c1cc(OCC)n(Cc2ccnc(OC(F)F)c2)n1 [Compound 136] |  |  |  |  |  |  |  |  |  | 100 | 80
CCCc1cc(C(=O)NC2CC2)nn1Cc1ccnc(OC(F)F)c1 [Compound 205] |  |  |  |  |  |  |  |  |  | 90 | 70
CCCc1cc(C(=O)NCC(F)(F)F)nn1Cc1ccnc(OC(F)F)c1 [Compound 127] |  |  |  |  |  |  |  |  |  | 90 | 90
CCc1cc(C(=O)NOC(C)C)nn1Cc1ccnc(OC(F)F)c1 [Compound 126] |  |  |  |  |  |  |  |  |  | 90 | 90
CCOc1cc(C(=O)NCC(F)(F)F)nn1Cc1ccnc(OC(F)F)c1 [Compound 128] |  |  |  |  |  |  |  |  |  | 100 | 90
CCONC(=O)c1cc(CC)n(Cc2cccc(OC(F)(F)F)c2)n1 [Compound 72] |  |  |  |  |  | 80 | 5 | 45 | 50 |  | 
